Type in all cases: physicochemical
A short description of data set [1]: Phase stability of Form B in formulation (XRPD). To be noted: after 24 h; 0.5% MC and 0.5% Tween 80 in water. How it is done: (§1) High resolution XRPD experiments were performed with Panalytical X′Pert^3 Powder XRPD on a Si zero-background holder. The 2θposition was calibrated against Panalytical 640 Si powder standard.
(§2) Kinetic solubility and phase stability of Form B was tested in a formulation (0.5% methyl cellulose (MC) and 0.5% Tween 80 in water). The sample was monitored by XRPD at 1, 2, 4 and 24 hours for phase stability. […] Kinetic solubility of Form B was measured in the same formulation at time points of 1, 2, 4 and 24 hour (Table 8). The supernatant was obtained by filtration and the concentration was measured by HPLC.

Data set [2] is described as follows: Kinetic solubility of Form B in formulation (0.5% MC, 0.5% Tween 80 in water), HPLC. To be noted: 0.5% MC and 0.5% Tween 80 in water. How it is done: High Pressure Liquid Chromatography (HPLC) data was obtained according to Table 5, below:
as §2

The nature of data set [3]: Dynamic Vapor Sorption (DVS) of Form B. The source says: DVS was obtained using a Surface Measurement System (SMS) DVS Intrinsic. The details of the method are providing in Table 4, below:
The sample was non-hygroscopic.

Data set [4] can be described thus: Slurry competition of Form B and Form C at different water activity (XRPD). Conditions: for Results (solid form after slurry competition): 4 days. How it is done:
as §1
Form C was dissolved in three solvent mixtures (see Table 7) to get saturated solutions. Similar mass of Form B and Form C were added into the saturated solutions. The suspensions obtained were stirred at room temperature for 4 days and the solids collected were analyzed with XRPD.

A short description of data set [5]: Chemical stability study at elevated temperature and controlled relative humidity. How it is done: A study was conducted on a sample of Compound 1 (Form B) where samples were exposed (open) to a range of elevated temperatures (50-80° C.) and controlled relative humidity (RH) (0-80% RH).
Data set [6] in a line: Slurry stability evaluation of Mixture A (XRPD of collected solids). To be noted: 4 days. The method, then: as §1
The solids collected were analyzed by XRPD to confirm the form change.

The text below walks through data of patent publication US10793554B2, “Solid forms of 4-(2-fluoro-4-(1-methyl-1H-benzo[d]imidazol-5-yl)benzoyl)piperazin-1-yl)(1-hydroxycyclopropyl)methanone” (FORMA Therapeutics, Inc., priority 2018, dated 2020).

SMILES strings stand for the structures. ≈ marks a conversion by molar mass, not a printed value. Entries after “also recorded” stand apart in the source; their conditions may differ.

Usually solubility stands for how much of the substance goes into solution per volume.

`Cn1cnc2cc(-c3ccc(C(=O)N4CCN(C(=O)C5(O)CC5)CC4)c(F)c3)ccc21` [Form B, (4-(2-fluoro-4-(1-methyl-1H-benzo[d]imidazol-5-yl)benzoyl)piperazin-1-yl)(1-hydroxycyclopropyl)methanone]: the “phase transformation / form change in formulation (XRPD)” value in data set [1] is reported as “no phase transformation; also recorded: no form change”. Besides, in data set [2] (0.5% methyl cellulose and 0.5% Tween 80 in water, aqueous with cosolvent or surfactant or cyclodextrin, thermodynamic from solid, 1 h, RT), the solubility at 1 h was 62 µg/mL (≈ 147 µM). In data set [2] (0.5% methyl cellulose and 0.5% Tween 80 in water, aqueous with cosolvent or surfactant or cyclodextrin, thermodynamic from solid, 2 h, RT), this compound gave a solubility at 2 h of 62 µg/mL (≈ 147 µM). The concentration in solution in data set [2] (0.5% methyl cellulose and 0.5% Tween 80 in water, aqueous with cosolvent or surfactant or cyclodextrin, thermodynamic from solid, 4 h, RT) (solubility at 4 h) was 63 µg/mL (≈ 149 µM). Moreover, the concentration in solution in data set [2] (0.5% methyl cellulose and 0.5% Tween 80 in water, aqueous with cosolvent or surfactant or cyclodextrin, thermodynamic from solid, 24 h, RT) (solubility at 24 h) was 60 µg/mL (≈ 142 µM). Moreover, the “Purity of solubility sample” value is given as 97.8 % area at 240 nm in data set [2] (1 h), 97.8 % area at 240 nm in data set [2] (2 h), 97.7 % area at 240 nm in data set [2] (4 h) and 97.7 % area at 240 nm in data set [2] (24 h). The “course of solubility over time” value in data set [2] (during 24 hours at RT) is recorded as “remained stable”. Further, the “degradation in the solubility sample / vehicle” value in data set [2] (up to 24 h) is recorded as “No significant degradation; also recorded: no form change or significant degradation”. Besides, the “form change before and after DVS (XRPD)” value in data set [3] is listed as “no form change”. The “hygroscopicity (DVS)” value in data set [3] (25° C.) is “non-hygroscopic”. Besides, in data set [3] (from 0% RH to 95% RH at 25° C.), the “mass change (DVS)” value came to 0.46 wt %.

Turning to `Cn1cnc2cc(-c3ccc(C(=O)N4CCN(C(=O)C5(O)CC5)CC4)c(F)c3)ccc21` [Form B and Form C, (4-(2-fluoro-4-(1-methyl-1H-benzo[d]imidazol-5-yl)benzoyl)piperazin-1-yl)(1-hydroxycyclopropyl)methanone], the “Results (solid form after slurry competition)” value in data set [4] (H2O/MeOH (85:915 v/v), Aw 0.25, RT) is “Form B”; in data set [4] (H2O/MeOH (225:775 v/v), Aw 0.5, RT), “Form B”; in data set [4] (H2O/MeOH (494:506 v/v), Aw 0.75, 50° C.), “Form B”. The “form conversion in slurry competition (summary)” value in data set [4] (H2O/MeOH mixtures, Aw 0.25-0.75, 4 days) was “converted completely to Form B”.

For the compound `Cn1cnc2cc(-c3ccc(C(=O)N4CCN(C(=O)C5(O)CC5)CC4)c(F)c3)ccc21` [Compound 1, (4-(2-fluoro-4-(1-methyl-1H-benzo[d]imidazol-5-yl)benzoyl)piperazin-1-yl)(1-hydroxycyclopropyl)methanone], the estimated shelf life result in data set [5] (25° C./60% RH, Form B sample) is given as “greater than 5 years”. The chemical stability entry in data set [5] (Form B sample exposed open to 50-80° C., 0-80% RH) is “good chemical stability”.

With `Cn1cnc2cc(-c3ccc(C(=O)N4CCN(C(=O)C5(O)CC5)CC4)c(F)c3)ccc21` [Mixture A, (4-(2-fluoro-4-(1-methyl-1H-benzo[d]imidazol-5-yl)benzoyl)piperazin-1-yl)(1-hydroxycyclopropyl)methanone], the “Results (solid form after slurry)” value is recorded as “Form B” in data set [6] (ACN, 50° C.); “Form B” in data set [6] (ACN, RT); “Form B” in data set [6] (EtOAc, 50° C.); “Form B” in data set [6] (EtOAc, RT). Moreover, the “form conversion of solids from the slurries (summary)” value in data set [6] (EtOAc or ACN, RT or 50° C.) was “converted to Form B completely”.
